Data: the CheMixHub viscosity set
Values joined by “and” are separate entries in the source; they are usually repeats but may differ in a detail not shown here. Equal values may be shown once. ± gives the uncertainty stated by the source.

CC(C)[O-].CC(C)[O-].CC(C)[O-].CC(C)[O-].[Ti+4]
101.3 kPa
Settings	viscosity [mPa·s]
293.15 K	3.144 ± 0.19
303.15 K	1.845 ± 0.11
313.15 K	1.279 ± 0.077
323.15 K	1.003 ± 0.061

CC1CCCCC1O (stereo not drawn)
viscosity [mPa·s]
Settings	293.15 K	298.15 K	303.15 K	308.15 K	313.15 K
100 kPa	38.6 ± 0.84	26.99 ± 0.59	18.91 ± 0.41	13.95 ± 0.3	10.53 ± 0.23
101 kPa	21.7 ± 0.6	–	–	–	–

CCC(C)(O)CC
Settings	viscosity
298.15 K, 101.33 kPa	3.918 ± 0.036 mPa·s and 3.918 ± 0.031 mPa·s

CCCC(C)=O
Settings	viscosity
293.15 K, 101 kPa	0.506 ± 0.005 mPa·s
298.15 K, 101 kPa	0.463 ± 0.016 mPa·s and 0.4591 ± 0.0049 mPa·s and 0.4673 ± 0.013 mPa·s
303.15 K, 100 kPa	0.435 ± 0.018 mPa·s
303.15 K, 101 kPa	0.437 ± 0.016 mPa·s and 0.435 ± 0.02 mPa·s
303.15 K, 101.32 kPa	0.466 ± 0.004 mPa·s
303.15 K, 101.33 kPa	0.456 ± 0.013 mPa·s
308.15 K, 100 kPa	0.422 ± 0.017 mPa·s
308.15 K, 101 kPa	0.413 ± 0.016 mPa·s and 0.422 ± 0.02 mPa·s and 0.4197 ± 0.011 mPa·s
313.15 K, 100 kPa	0.409 ± 0.017 mPa·s
313.15 K, 101 kPa	0.405 ± 0.004 mPa·s
318.15 K, 101 kPa	0.3782 ± 0.01 mPa·s
323.15 K, 101 kPa	0.3584 ± 0.004 mPa·s

CCCCCCCC(=O)[O-].CC[NH+](C(C)C)C(C)C
Settings	viscosity [mPa·s]
298.15 K, 101.3 kPa	13.52 ± 0.84

CCCCCCCCCCCCCC[P+](CCCCCC)(CCCCCC)CCCCCC.O=S(=O)([N-]S(=O)(=O)C(F)(F)F)C(F)(F)F
Settings	viscosity [mPa·s]
313.15 K, 101 kPa	150 ± 16

CCCC[n+]1ccccc1.N#C[N-]C#N
101 kPa
Settings	viscosity [mPa·s]
293.15 K	41.05 ± 0.38
298.15 K	33.27 ± 0.31
303.15 K	27.62 ± 0.26
308.15 K	22.9 ± 0.21
313.15 K	19.3 ± 0.18
318.15 K	16.73 ± 0.16
323.15 K	14.44 ± 0.14

CCCOC(C)=O
viscosity
Settings	293.15 K	298.15 K	303.15 K	308.15 K	313.15 K	318.15 K
101 kPa	0.591 ± 0.006 mPa·s	0.56 ± 0.02 mPa·s and 0.553 ± 0.015 mPa·s and 0.562 ± 0.034 mPa·s	0.525 ± 0.032 mPa·s	0.487 ± 0.013 mPa·s and 0.488 ± 0.029 mPa·s	0.462 ± 0.005 mPa·s and 0.451 ± 0.027 mPa·s	0.439 ± 0.012 mPa·s
101.33 kPa	–	0.563 ± 0.015 mPa·s	0.524 ± 0.015 mPa·s and 0.512 ± 0.004 mPa·s	0.489 ± 0.014 mPa·s and 0.483 ± 0.004 mPa·s	–	–

CCN(CC)CC
Settings	viscosity
293.15 K, 100 kPa	0.3608 ± 0.004 mPa·s
293.15 K, 101 kPa	0.369 ± 0.01 mPa·s
297.85 K, 101 kPa	0.352 ± 0.004 mPa·s
298 K, 101.33 kPa	0.35 ± 0.007 mPa·s
298.15 K, 100 kPa	0.353 ± 0.1 mPa·s and 0.3534 ± 0.15 mPa·s (2×)
298.15 K, 101 kPa	0.344 ± 0.007 mPa·s
302.85 K, 101 kPa	0.335 ± 0.004 mPa·s
303.15 K, 100 kPa	0.339 ± 0.1 mPa·s and 0.3387 ± 0.15 mPa·s (2×)
303.15 K, 101 kPa	0.333 ± 0.01 mPa·s
303.15 K, 101.33 kPa	0.3592 ± 0.004 mPa·s and 0.3592 ± 0.005 mPa·s
307.85 K, 101 kPa	0.319 ± 0.004 mPa·s
308.15 K, 100 kPa	0.322 ± 0.1 mPa·s and 0.3221 ± 0.15 mPa·s (2×)
312.95 K, 101 kPa	0.304 ± 0.004 mPa·s
313.15 K, 101 kPa	0.302 ± 0.01 mPa·s
313.15 K, 101.33 kPa	0.3249 ± 0.0037 mPa·s and 0.3249 ± 0.0049 mPa·s
317.75 K, 101 kPa	0.291 ± 0.003 mPa·s
322.75 K, 101 kPa	0.278 ± 0.003 mPa·s
323.15 K, 101 kPa	0.275 ± 0.01 mPa·s

CCOC(=O)c1ccccc1O
Settings	viscosity [mPa·s]
303.15 K, 101 kPa	3.117 ± 0.036

CC[N+](C)(CC)CCOC.F[B-](F)(F)F
101 kPa
Settings	viscosity [mPa·s]
293.15 K	228.1 ± 12
298.15 K	178.6 ± 7.9
303.15 K	140.4 ± 5.3
308.15 K	111.4 ± 3.5
313.15 K	89.27 ± 2.4
318.15 K	70.53 ± 1.6
323.15 K	57.55 ± 1.2

CC[n+]1ccn(C)c1.N#C[N-]C#N
viscosity
Settings	298.15 K	303.15 K	308.15 K	313.15 K	318.15 K	323.15 K
100 kPa	14.78 ± 0.61 mPa·s and 13.09 ± 0.82 mPa·s	12.88 ± 0.53 mPa·s and 11.39 ± 0.81 mPa·s	11.3 ± 0.47 mPa·s and 10 ± 0.81 mPa·s	9.759 ± 0.4 mPa·s and 8.86 ± 0.61 mPa·s	8.929 ± 0.37 mPa·s and 7.92 ± 0.61 mPa·s	8.01 ± 0.33 mPa·s and 7.13 ± 0.61 mPa·s
101 kPa	14.9 ± 0.62 mPa·s and 17.4 ± 2.1 mPa·s	–	–	10.07 ± 0.42 mPa·s	–	–

CCn1cc[n+](C)c1.O=C([O-])[C@@H]1CCCN1
101 kPa
Settings	viscosity [mPa·s]
298.15 K	1195 ± 130
303.15 K	771.5 ± 72

ClC(Cl)(Cl)Cl
Settings	viscosity
293.15 K, 101 kPa	0.95 ± 0.03 mPa·s and 0.9826 ± 0.026 mPa·s
298 K, 101 kPa	0.9128 ± 0.012 mPa·s
298 K, 101.3 kPa	0.892 ± 0.009 mPa·s
298 K, 101.33 kPa	0.899 ± 0.011 mPa·s
298.15 K, 100 kPa	0.9062 ± 0.0086 mPa·s and 0.897 ± 0.019 mPa·s
298.15 K, 101.32 kPa	0.902 ± 0.0008 mPa·s and 0.902 ± 0.0007 mPa·s
298.16 K, 101 kPa	0.907 ± 0.024 mPa·s
301.85 K, 101 kPa	0.9088 ± 0.024 mPa·s
303 K, 101.33 kPa	0.8371 ± 0.01 mPa·s and 0.838 ± 0.01 mPa·s
303.15 K, 100 kPa	0.845 ± 0.0081 mPa·s and 0.838 ± 0.018 mPa·s
303.15 K, 101.3 kPa	0.8427 ± 0.0054 mPa·s and 0.8427 ± 0.084 mPa·s
303.15 K, 101.33 kPa	0.845 ± 0.007 mPa·s and 0.845 ± 0.1 mPa·s and 0.768 ± 0.02 mPa·s
308 K, 101 kPa	0.7888 ± 0.011 mPa·s
308.15 K, 100 kPa	0.7897 ± 0.0076 mPa·s and 0.784 ± 0.017 mPa·s
308.15 K, 101.33 kPa	0.717 ± 0.019 mPa·s
312.15 K, 101 kPa	0.7815 ± 0.021 mPa·s
313 K, 101.33 kPa	0.7436 ± 0.0089 mPa·s and 0.735 ± 0.009 mPa·s
313.15 K, 100 kPa	0.7394 ± 0.0072 mPa·s and 0.734 ± 0.016 mPa·s
313.15 K, 101.33 kPa	0.739 ± 0.019 mPa·s and 0.7392 ± 0.0037 mPa·s
318 K, 101 kPa	0.6788 ± 0.0095 mPa·s
318 K, 101.3 kPa	0.7444 ± 0.027 mPa·s and 0.7449 ± 0.027 mPa·s
318 K, 101.33 kPa	0.7449 ± 0.039 mPa·s
318.15 K, 100 kPa	0.689 ± 0.015 mPa·s
323 K, 101.33 kPa	0.6566 ± 0.0079 mPa·s and 0.653 ± 0.008 mPa·s
323.15 K, 101 kPa	0.712 ± 0.019 mPa·s
323.15 K, 101.33 kPa	0.6543 ± 0.0033 mPa·s
